Where two headings read alike, the source gives them in different places.
Tests used:
[1] = test system: U937 cells; assay: Cell proliferation inhibition assay (WST-1), U937; format: cell-based; details: for Ratio IC50 cell/enzyme (Aurora kinase): U937 cell IC50 / Aurora kinase A IC50; for selectivity between a monocytic and non-monocytic cell line (cell proliferation): U937 versus HCT116
Protocol: (§1) Following 24 h of growth cells were treated with compound. Plates were then re-incubated for a further 72-96 h before a WST-1 cell viability assay was conducted according to the suppliers (Roche Applied Science) instructions
(§2) Data were expressed as a percentage inhibition of the control, measured in the absence of inhibitor, as follows;—
(§3) where S^l is the signal in the presence of inhibitor and S^o is the signal in the presence of DMSO.
(§4) Dose response curves were generated from 8 concentrations (top final concentration 10 μM, with 3-fold dilutions), using 6 replicates.

[2] = molecular target: T1, recombinant human DHFR (Homo sapiens, UniProt P00374); assay: Dihydrofolate reductase (DHFR) inhibitory activity assay; format: biochemical
T1 construct: purchased Sigma CS0340
T1 sequence (P00374 1-187): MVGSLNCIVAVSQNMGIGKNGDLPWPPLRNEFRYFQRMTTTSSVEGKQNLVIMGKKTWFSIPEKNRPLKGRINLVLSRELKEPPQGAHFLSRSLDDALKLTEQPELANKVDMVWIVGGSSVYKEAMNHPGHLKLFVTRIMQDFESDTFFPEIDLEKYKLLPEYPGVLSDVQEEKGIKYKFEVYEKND
Protocol: The ability of compounds to inhibit DHFR activity was measured in an assay based on the ability of DHFR to catalyse the reversible NADPH-dependent reduction of dihydrofolic acid to tetrahydrofolic acid using a Sigma kit (Catalogue number CS0340). This uses proprietary assay buffer and recombinant human DHFR at 7.5×10^−4 Unit per reaction, NADPH at 60 μM and dihydrofolic acid at 50 μM. The reaction was followed by monitoring the decrease in absorbance at 340 nm, for a 2 minute period, at room temperature, and the enzyme activity was calculated as the rate of decrease in absorbance. Enzyme activity, in the presence of inhibitor, was expressed as a percentage of inhibitor-free activity and the inhibitor IC50 was determined from a sigmoidal dose response curve using XIfit software (% activity against log concentration of compound). Each sample was run in triplicate and each dose response curve was composed of 10 dilutions of the inhibitor.

[3] = test system: U937 cell extract (esterase activity); assay: Broken cell carboxylesterase assay, U937 cell extract; format: in vitro ADME; details: U937 versus HCT116 broken cell assay
Protocol: U937 or HCT 116 tumour cells (˜10^9) were washed in 4 volumes of Dulbeccos PBS (˜1 litre) and pelleted at 525 g for 10 min at 4° C. This was repeated twice and the final cell pellet was resuspended in 35 ml of cold homogenising buffer (Trizma 10 mM, NaCl 130 mM, CaCl2 0.5 mM pH 7.0 at 25° C.). Homogenates were prepared by nitrogen cavitation (700 psi for […] at 4° C.). The homogenate was kept on ice and supplemented with a cocktail of Inhibitors at final concentrations of: • Leupeptin 1 μM • Aprotinin 0.1 μM • E64 8 μM • Pepstatin 1.5 μM • Bestatin 162 μM • Chymostatin 33 μM
After clarification of the cell homogenate by centrifugation at 525 g for 10 min, the resulting supernatant was used as a source of esterase activity and was stored at −80° C. until required.
Hydrolysis of esters to the corresponding carboxylic acids can be measured using the cell extract, prepared as above. To this effect cell extract (˜30 μg/total assay volume of 0.5 ml) was incubated at 37° C. in a Tris-HCl 25 mM, 125 mM NaCl buffer, pH 7.5 at 25° C. At zero time the ester (substrate) was then added at a final concentration of 2.5 μM and the samples were incubated at 37° C. for the appropriate time (usually 0 or 80 min). […] After centrifugation at 12000 g for 5 min, samples were analysed for the ester and its corresponding carboxylic acid at room temperature by LCMS (Sciex API 3000, HP1100 binary pump, CTC PAL). […]

[4] = test system: HCT 116 cells; assay: Cell proliferation inhibition assay (WST-1), HCT116; format: cell-based; details: for Ratio IC50 Cell/enzyme (HCT116), Table 2: HCT116 cell IC50 / DHFR enzyme IC50
Protocol: as §1, §2, §3, §4

[5] = test system: TNFα production in human whole blood; assay: LPS-stimulation of human whole blood, TNF-α ELISA; format: cell-based; details: for Ratio IC50 WB/enzyme (P38 MAP kinase): whole blood IC50 / P38 MAP kinase IC50; for Ratio IC50 WB/enzyme (PI 3-Kinase): whole blood IC50 / PI3-Kinase IC50
Protocol: Whole blood was taken by venous puncture using heparinised vacutainers (Becton Dickinson) and diluted in an equal volume of RPMI1640 tissue culture media. 100 μl was plated in V-bottomed 96 well tissue culture plates. Inhibitor was added in 100 μl of RPMI1640 media, and 2 h later the blood was stimulated with LPS (E coli strain 005:B5, Sigma) at a final concentration of 100 ng/ml and incubated at 37° C. in 5% CO2 for 6 h. TNF-α levels were measured from cell-free supernatants by sandwich ELISA (R&D Systems #QTA00B).

[6] = compound as shown (ester or unmodified modulator, or named acid), read-out: IC50 nM enzyme (DHFR)
[7] = enzyme IC50 for the acid resulting from cleavage of the ester shown, read-out: IC50 nM enzyme (acid), figures in brackets

With `COc1cc2c(Oc3ccc(NC(=O)c4ccccc4)cc3)ccnc2cc1OCC[C@H](N)C(=O)OC(C)(C)C` [Compound (14), (S)-2-Amino-4-[4-(4-benzoylamino-phenoxy)-6-methoxy-quinolin-7-yloxy]-butyric acid tert-butyl ester] the “Ratio IC50 cell/enzyme (Aurora kinase)” value [1] was 0.025.

In the case of `Cc1c(CNc2ccc(C(=O)NC(CC(C)C)C(=O)OC3CCCC3)cc2)cnc2nc(N)nc(N)c12` (stereo not drawn), the IC50 [2, 6] is reported as 1700 nM and the IC50 [2, 7] is reported as 8 nM.

For `Cc1c(CNc2ccc(OCC[C@H](NC3CCCCC3)C(=O)OC3CCCC3)cc2)cnc2nc(N)nc(N)c12` [Compound (4), (S)-2-Cyclohexylamino-4-{4-[(2,4-diamino-5-methyl-pyrido[2,3-d]pyrimidin-6-ylmethyl)-amino]-phenoxy}-butyric acid cyclopentyl ester], the “selectivity between a monocytic and non-monocytic cell line (cell proliferation)” value [1] was “significantly more anti-proliferative in monocytic cell lines” and the “cleavage of the ester in monocytic versus non-monocytic cell lines” value [3] was “selective cleavage in monocytic but not non-monocytic cell lines”.

`Cc1c(CNc2ccc(CN[C@@H](CC(C)C)C(=O)OC3CCCC3)cc2)cnc2nc(N)nc(N)c12` [Compound (5), (S)-2-{4-[(2,4-Diamino-5-methyl-pyrido[2,3-d]pyrimidin-6-ylmethyl)-amino]-benzylamino}-4-methyl-pentanoic acid cyclopentyl ester] was tested, and the “selectivity between a monocytic and non-monocytic cell line (cell proliferation)” value [1] was “significantly more anti-proliferative in monocytic cell lines” and the “cleavage of the ester in monocytic versus non-monocytic cell lines” value [3] was “selective cleavage in monocytic but not non-monocytic cell lines”.

`Cc1c(CNc2ccc(OCCC(NC3CCCCC3)C(=O)OC3CCCC3)cc2)cnc2nc(N)nc(N)c12` (stereo not drawn) was tested, and the “Ratio IC50 Cell/enzyme (HCT116), Table 2” value [4] was 66, the IC50 [2, 6] was 1030 nM and the IC50 [2, 7] was 25 nM.

`COc1cc(NCc2cnc3nc(N)nc(N)c3c2C)cc(OC)c1OC` [Compound (2 G=N), 5-Methyl-6-((3,4,5-trimethoxyphenylamino)methyl)pyrido[2,3-d]pyrimidine-2,4-diamine, reference compound] showed an IC50 [2, 6] of 10 nM.

`Nc1c(C(=O)c2ccc(F)cc2F)ccc(=O)n1-c1c(F)cccc1F` [Compound (15), 6-Amino-5-(2,4-difluoro-benzoyl)-1-(2,6-difluoro-phenyl)-1H-pyridin-2-one, reference compound] was tested, and the “Ratio IC50 WB/enzyme (P38 MAP kinase)” value [5] was 6.

`COc1cc(NCc2cnc3nc(N)nc(N)c3c2C)cc(OC)c1OC` [drawing 10] was tested, and the “Ratio IC50 Cell/enzyme (HCT116), Table 2” value [4] was 170 and the “Ratio IC50 cell/enzyme (U937), Table 2” value ([1]; U937 cell IC50 / DHFR enzyme IC50) was 220.

With `Cc1c(CNc2ccc(OCCC(N)C(=O)OC3CCCC3)cc2)cnc2nc(N)nc(N)c12` (stereo not drawn) the “Ratio IC50 Cell/enzyme (HCT116), Table 2” value [4] was 14, the IC50 [2, 6] was 2700 nM and the IC50 [2, 7] was 11 nM.

For `Cc1c(CNc2ccc(C(=O)N[C@@H](CC(C)C)C(=O)O)cc2)cnc2nc(N)nc(N)c12` [Compound (19), (S)-2-(4-((2,4-diamino-5-methylpyrido[2,3-d]pyrimidin-6-yl)methylamino)benzamido)-4-methylpentanoic acid], the IC50 [2, 6] was 10 nM.

In the case of `CC(=O)Nc1nc(C)c(-c2ccc(Cl)c(S(C)(=O)=O)c2)s1` [Compound (20), N-[5-(4-Chloro-3-methanesulfonyl-phenyl)-4-methyl-thiazol-2-yl]-acetamide, reference compound], the “Ratio IC50 WB/enzyme (PI 3-Kinase)” value [5] is reported as 17.

For `Cc1nc(NC(=O)CC[C@H](N)C(=O)OC2CCCC2)sc1-c1ccc(Cl)c(S(C)(=O)=O)c1` [Compound (21), (S)-2-Amino-4-[5-(4-chloro-3-methanesulfonyl-phenyl)-4-methyl-thiazol-2-ylcarbamoyl]-butyric acid cyclopentyl ester], the “Ratio IC50 WB/enzyme (PI 3-Kinase)” value [5] was 0.15.

For `Cc1c(CNc2ccc(C(=O)N[C@@H](CC(C)C)C(=O)OC3CCCC3)cc2)cnc2nc(N)nc(N)c12` [Compound (6), (S)-2-{4-[(2,4-Diamino-5-methyl-pyrido[2,3-d]pyrimidin-6-ylmethyl)-amino]-benzoylamino}-4-methyl-pentanoic acid cyclopentyl ester], the “fold more potent in the HCT116 than the unmodified analogue (2 G=N)” value ([4]; HCT116, versus (2 G=N)) was 15 fold, the IC50 [2, 6] was 1700 nM and the “fold more potent in U937 cells than the unmodified analogue (2 G=N)” value ([1]; U937 cells, versus (2 G=N)) was 100 fold.

`Cc1c(CNc2ccc(CNC(CC(C)C)C(=O)OC3CCCC3)cc2)cnc2nc(N)nc(N)c12` (stereo not drawn) was tested, and the “Ratio IC50 Cell/enzyme (HCT116), Table 2” value [4] was 17, the IC50 [2, 6] was 4000 nM and the IC50 [2, 7] was 10 nM.

In the case of `CC(C)(C)OC(=O)[C@@H](N)CCOc1cc(F)c(-n2c(N)c(C(=O)c3ccc(F)cc3F)ccc2=O)c(F)c1` [Compound (18), (S)-2-Amino-4-{4-[6-amino-5-(2,4-difluoro-benzoyl)-2-oxo-2H-pyridin-1-yl]-3,5-difluoro-phenoxy}-butyric acid tert-butyl ester], the “Ratio IC50 WB/enzyme (P38 MAP kinase)” value [5] is reported as 18.

With `Cc1nc(NC(=O)CC[C@H](N)C(=O)OC(C)(C)C)sc1-c1ccc(Cl)c(S(C)(=O)=O)c1` [Compound (23), (S)-2-Amino-4-[5-(4-chloro-3-methanesulfonyl-phenyl)-4-methyl-thiazol-2-ylcarbamoyl]-butyric acid tert-butyl ester] the “Ratio IC50 WB/enzyme (PI 3-Kinase)” value [5] was 0.75.

For `COc1cc2nccc(Oc3ccc(NC(=O)c4ccccc4)cc3)c2cc1OC` [Compound (11), N-{4-(7-methoxy-6-methoxy-quinoline-4-yloxy)-phenyl}-benzamide, reference compound], the “Ratio IC50 cell/enzyme (Aurora kinase)” value [1] was 1.3.

`COc1cc2c(Oc3ccc(NC(=O)c4ccccc4)cc3)ccnc2cc1OCC[C@H](N)C(=O)OC1CCCC1` [Compound (12), (S)-2-amino-4-[4-(4-benzoylamino-phenoxy)-6-methoxy-quinolin-7-yloxy]-butyric acid cyclopentyl ester] was tested, and the “Ratio IC50 cell/enzyme (Aurora kinase)” value [1] was 0.0015.

Reference: patent US20180000952A1, “ENZYME AND RECEPTOR MODULATION” (GlaxoSmithKline Intellectual Property Development Limited, priority 2005, published 2018)
